Where two headings read alike, the source gives them in different places.
Key:
corn = experiment: Test A preemergence; format: in vivo, Zea mays; conditions: Zea mays, pre-emergence, 240 h; for Corn plant response rating (crop injury, 0 = no effect, 100 = complete kill) at 125 g/ha: 125 g ai/ha; for Corn plant response rating (crop injury, 0 = no effect, 100 = complete kill) at 500 g/ha: 500 g ai/ha
Procedure, shortened: (§1)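 Greenhouse pot test, 10 days. Compound (non-phytotoxic solvent, surfactant) sprayed on soil at seeding or on seedlings at one- to two-leaf stage. Visual injury rated 0–100 against untreated plants.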

foxtail, giant = experiment: Test A preemergence; format: in vivo, Setaria faberi; conditions: Setaria faberi, pre-emergence, 240 h, read-out: Plant response rating, Foxtail, Giant; for pest or weed control at 125 g/ha: 125 g ai/ha; for pest or weed control at 500 g/ha: 500 g ai/ha
Procedure, shortened: as §1

pigweed, palmer [1] = experiment: Test A preemergence; format: in vivo, Amaranthus palmeri; conditions: Amaranthus palmeri, pre-emergence, 240 h, read-out: Plant response rating, Pigweed, Palmer; for pest or weed control at 125 g/ha: 125 g ai/ha; for pest or weed control at 500 g/ha: 500 g ai/ha
Procedure, shortened: as §1

ragweed = experiment: Test A preemergence; format: in vivo, Ambrosia artemisiifolia; conditions: Ambrosia artemisiifolia, pre-emergence, 240 h, read-out: Plant response rating, Ragweed; for pest or weed control at 125 g/ha: 125 g ai/ha; for pest or weed control at 500 g/ha: 500 g ai/ha
Procedure, shortened: as §1

soybean = experiment: Test A preemergence; format: in vivo, Glycine max; conditions: Glycine max, pre-emergence, 240 h, read-out: Plant response rating, Soybean; for plant injury at 125 g/ha: 125 g ai/ha; for plant injury at 500 g/ha: 500 g ai/ha
Procedure, shortened: as §1

blackgrass = experiment: Test A postemergence; format: in vivo, Alopecurus myosuroides; conditions: Alopecurus myosuroides, post-emergence, 240 h; for pest or weed control at 125 g/ha: 125 g ai/ha; for pest or weed control at 500 g/ha: 500 g ai/ha
Procedure, shortened: as §1

kochia = experiment: Test A postemergence; format: in vivo, Bassia scoparia; conditions: Bassia scoparia, post-emergence, 240 h; for pest or weed control at 125 g/ha: 125 g ai/ha; for pest or weed control at 500 g/ha: 500 g ai/ha
Procedure, shortened: as §1

oat, wild [2] = experiment: Test A postemergence; format: in vivo, Avena fatua; conditions: Avena fatua, post-emergence, 240 h; for pest or weed control at 125 g/ha: 125 g ai/ha; for pest or weed control at 500 g/ha: 500 g ai/ha
Procedure, shortened: as §1

pigweed, palmer [3] = experiment: Test A postemergence; format: in vivo, Amaranthus palmeri; conditions: Amaranthus palmeri, post-emergence, 240 h; for pest or weed control at 125 g/ha: 125 g ai/ha; for pest or weed control at 500 g/ha: 500 g ai/ha
Procedure, shortened: as §1

wheat = experiment: Test A postemergence; format: in vivo, Triticum aestivum; conditions: Triticum aestivum, post-emergence, 240 h; for plant injury at 125 g/ha: 125 g ai/ha; for plant injury at 500 g/ha: 500 g ai/ha
Procedure, shortened: as §1

horseweed = experiment: Test A postemergence; format: in vivo, Erigeron canadensis; conditions: Erigeron canadensis, post-emergence, 240 h, postemergence, 10 days, 0 to 100 scale (0 no effect, 100 complete control); for pest or weed control at 125 g/ha: 125 g ai/ha; for pest or weed control at 500 g/ha: 500 g ai/ha
Procedure, shortened: as §1

barnyardgrass = experiment: Test B flooded paddy test; format: in vivo, Echinochloa crus-galli; conditions: Echinochloa crus-galli, 312 h, 250 g ai/ha, Flood, 13 days, 0 to 100 scale (0 no effect, 100 complete control); read-out: Plant response rating, Barnyardgrass
Procedure, shortened: (§2)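 Flooded to 3 cm at treatment time, 2-leaf plants got the test compound applied straight into the paddy water. They then stayed under constant flood in a greenhouse for 13 days. Ratings used a 0 to 100 visual scale.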

rice = experiment: Test B flooded paddy test; format: in vivo, Oryza sativa; conditions: Oryza sativa, 312 h; 250 g ai/ha, Flood, 13 days, 0 to 100 scale (0 no effect, 100 complete control); read-out: Plant response rating, Rice
Procedure, shortened: as §2

oat, wild [4] = experiment: Test A preemergence; format: in vivo, Avena fatua; conditions: Avena fatua, pre-emergence, 240 h, read-out: Plant response rating, Oat, Wild
Procedure, shortened: as §1

[5] = visual injury after 10 days, 0 to 100 scale, 0 is no effect, 100 is complete control
[6] = postemergence, 10 days, visual injury, 0 to 100 scale (0 no effect, 100 complete control), read-out: Plant response rating, Blackgrass
[7] = postemergence, 10 days, visual injury, 0 to 100 scale (0 no effect, 100 complete control), read-out: Plant response rating, Kochia
[8] = postemergence, 10 days, visual injury, 0 to 100 scale (0 no effect, 100 complete control), read-out: Plant response rating, Oat, Wild
[9] = postemergence, 10 days, visual injury, 0 to 100 scale (0 no effect, 100 complete control), read-out: Plant response rating, Pigweed, Palmer
[10] = postemergence, 10 days, visual injury, 0 to 100 scale (0 no effect, 100 complete control), read-out: Plant response rating, Wheat
[11] = visual injury, read-out: Plant response rating, Horseweed
[12] = 0 to 100 scale (0 no effect, 100 complete control), 10 days
[13] = Postemergence, 0 to 100 scale, read-out: Plant response rating, Blackgrass

Row | SMILES | Corn plant response rating (crop injury, 0 = no effect, 100 = complete kill) at 125 g/ha (corn; [5]) [%] | pest or weed control at 125 g/ha (foxtail, giant; [5]) [%] | pest or weed control at 125 g/ha (pigweed, palmer [1]; [5]) [%] | pest or weed control at 125 g/ha (ragweed; [5]) [%] | plant injury at 125 g/ha (soybean; [5]) [%] | pest or weed control at 500 g/ha (kochia; [7]) [%] | pest or weed control at 500 g/ha (oat, wild [2]; [8]) [%] | pest or weed control at 500 g/ha (pigweed, palmer [3]; [9]) [%] | plant injury at 500 g/ha (wheat; [10]) [%] | pest or weed control at 500 g/ha (horseweed; [11]) [%] | pest or weed control at 250 g/ha (barnyardgrass) [%] | plant injury at 250 g/ha (rice) [%] | Corn plant response rating (crop injury, 0 = no effect, 100 = complete kill) at 500 g/ha (corn; [12]) [%] | pest or weed control at 500 g/ha (foxtail, giant; [12]) [%] | pest or weed control at 500 g/ha (pigweed, palmer [1]; [12]) [%] | pest or weed control at 500 g/ha (ragweed; [12]) [%] | plant injury at 500 g/ha (soybean; [12]) [%] | pest or weed control at 125 g/ha (blackgrass; [6]) [%] | pest or weed control at 500 g/ha (blackgrass; [13]) [%] | pest or weed control at 125 g/ha (kochia; [7]) [%] | also measured
1 | Cc1ccc(-n2ncnc2C)cc1C(=O)N1C[C@H](C)Oc2c(Cl)cccc21 (single isomer, unassigned) [Compound 126] | 0 | 60 | 20 | 0 | 0 | 20 | 50 | 30 | 30 | 40 | 0 | 0 |  |  |  |  |  |  |  |  | Corn plant response rating (crop injury, 0 = no effect, 100 = complete kill) at 500 g/ha (corn; [5]): 40%; pest or weed control at 500 g/ha (foxtail, giant; [5]): 100%; pest or weed control at 500 g/ha (pigweed, palmer [1]; [5]): 60%; pest or weed control at 500 g/ha (ragweed; [5]): 0%; plant injury at 500 g/ha (soybean; [5]): 50%; pest or weed control at 125 g/ha (blackgrass; postemergence, 10 days, 0 to 100 scale (0 no effect, 100 complete control), read-out: Blackgrass plant response rating): 0%; pest or weed control at 500 g/ha (blackgrass; [6]): 40%; pest or weed control at 125 g/ha (kochia; postemergence, 10 days, 0 to 100 scale (0 no effect, 100 complete control), read-out: Kochia plant response rating): 10%; pest or weed control at 125 g/ha (oat, wild [2]; postemergence, 10 days, 0 to 100 scale (0 no effect, 100 complete control), read-out: Oat, Wild plant response rating): 0%; pest or weed control at 125 g/ha (pigweed, palmer [3]; postemergence, 10 days, 0 to 100 scale (0 no effect, 100 complete control), read-out: Pigweed, Palmer plant response rating): 0%; plant injury at 125 g/ha (wheat; postemergence, 10 days, 0 to 100 scale (0 no effect, 100 complete control), read-out: Wheat plant response rating): 0%; pest or weed control at 125 g/ha (horseweed; read-out: Horseweed plant response rating): 0%
2 | Cc1cccc2c1O[C@@H](C)CN2C(=O)c1cccc(-n2cnc(Br)n2)c1 [Compound 61, [3-(3-Bromo-1H-1,2,4-triazol-1-yl)phenyl][(2S)-2,3-dihydro-2,8-dimethyl-4H-1,4-benzoxazin-4-yl]methanone] | 0 | 90 | 60 | 0 | 0 |  |  |  |  |  | 0 | 0 | 0 | 90 | 90 | 40 | 30 | 20 | 40 | 20 | pest or weed control at 125 g/ha (oat, wild [4]; 125 g ai/ha, visual injury after 10 days, 0 to 100 scale, 0 is no effect, 100 is complete control): 30%; pest or weed control at 500 g/ha (oat, wild [4]; 500 g ai/ha, 0 to 100 scale (0 no effect, 100 complete control), 10 days): 30%; pest or weed control at 500 g/ha (kochia; Postemergence, 0 to 100 scale, read-out: Plant response rating, Kochia): 70%; pest or weed control at 125 g/ha (oat, wild [2]; [8]): 10%; pest or weed control at 500 g/ha (oat, wild [2]; Postemergence, 0 to 100 scale, read-out: Plant response rating, Oat, Wild): 20%; pest or weed control at 125 g/ha (pigweed, palmer [3]; [9]): 40%; pest or weed control at 500 g/ha (pigweed, palmer [3]; Postemergence, 0 to 100 scale, read-out: Plant response rating, Pigweed, Palmer): 50%; plant injury at 125 g/ha (wheat; [10]): 10%; plant injury at 500 g/ha (wheat; Postemergence, 0 to 100 scale, read-out: Plant response rating, Wheat): 20%
3 | Cc1ccc(-n2cnc(C(C)(C)C)n2)cc1C(=O)N1C[C@H](C)Oc2c(Cl)cccc21 [Compound 76, [(2S)-8-Chloro-2,3-dihydro-2-methyl-4H-1,4-benzoxazin-4-yl][5-[3-(1,1-dimethylethyl)-1H-1,2,4-triazol-1-yl]-2-methylphenyl]methanone] | 40 | 90 | 100 | 30 | 50 | 90 | 90 | 100 | 40 | 80 | 25 | 0 | 50 | 100 | 100 | 30 | 100 | 70 | 70 | 90 | pest or weed control at 125 g/ha (horseweed; [11]): 70%

Reference: patent US20260262643A1, “HERBICIDAL BENZOXAZINES” (FMC CORPORATION, priority 2022, published 2026)
